These results are taken from patent US20260217863A1, “ANTIBODY OR PEPTIDE BINDING SPECIFICALLY TO RNASE A, IMMUNOASSAY DEVICE AND METHOD FOR DETECTING RNASE A, AND METHOD FOR COLLECTING RNASE A” (UIF (University Industry Foundation), Yonsei University, priority 2022, published 2026).

In assay [1] the target is T1, RNase A (Bos taurus, UniProt P61823).
T1 sequence (P61823 27-150): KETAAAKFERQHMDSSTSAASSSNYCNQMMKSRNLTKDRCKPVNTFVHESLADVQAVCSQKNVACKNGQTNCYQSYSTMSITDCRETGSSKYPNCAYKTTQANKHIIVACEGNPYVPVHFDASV
The experiment in a line: RNase activity test kit, modified Taq-man RNA probe analysis (ab273299). Format: biochemical. Set-up: purchased Abcam ab273299. Conditions: for inhibition at 1 µM: inhibitor 1 μM, after 60 minutes, positive control (no inhibitor) = 100%, read-out: relative inhibition level / reduction of RNase A activity; for RNase A activity reduced by: summary paragraph, peptide 1 μM, versus non-inhibitory condition (100%); for IC50: synthetic peptides, RNA probe kit, linear regression. On the procedure:
The activity of RNase A, which degrades RNA, was evaluated using specially designed RNA probes. This RNase A analysis was performed using a commercial RNase activity test kit based on a modified Taq-man probe analysis (ab273299) from Abcam (Cambridge, UK). To compare inhibitory activity, three synthetic peptides (peptide-1, peptide-2, peptide-3) and three expressed Fv-antibodies (Fv-1, Fv-2, and Fv-3) were compared using two types of commercially available RNase inhibitors from Biofact™ (Daejeon, South Korea) and two types of RNaseOUT™ from Thermofisher (USA). The probes for the RNase inhibition analysis contained RNA probes with fluorescent dyes and quenching materials at each end of the RNA sequence. […] To estimate the RNase A inhibitory activity by the three synthesized peptides, each peptide was treated at a concentration of 1 μM using the analysis kit, and RNase activity was measured. The positive control was prepared to have an RNase reaction without an inhibitor, and the negative control was prepared to have an RNase reaction without the RNA probe. […] The RNase A inhibitory activity of the three synthesized peptides was analyzed after treating each peptide at a concentration range of 100 μM to 1 μM in the assay kit. […] The RNase A inhibitory activity of the three expressed Fv-antibodies was analyzed after treating each peptide at a concentration range of 100 μM to 1 μM in the analysis kit.
The activity of RNase A, which degrades RNA, was evaluated using specially designed RNA probes. This RNase A analysis was performed using a commercial RNase activity test kit based on a modified Taq-man probe analysis (ab273299) from Abcam (Cambridge, UK). For the comparison of inhibitory activity, three synthetic peptides (Peptide-1, Peptide-2, Peptide-3) and three expressed Fv-antibodies (Fv-1, Fv-2, and Fv-3) were compared using two types of commercially available RNase inhibitors from Biofact™ (Daejeon, South Korea) and two types of RNaseOUT™ from Thermofisher (USA). The probes for the RNase inhibition analysis contain RNA probes with fluorescent dyes and fluorescent quenchers at each end of the RNA nucleotide sequence.
To estimate the RNase A inhibitory activity of the three synthesized peptides, each peptide was treated at a concentration of 1 μM using an assay kit, and the RNase activity was evaluated. The positive control was prepared to have an RNase reaction without the inhibitor, while the negative control was prepared to have an RNase reaction without the RNA probe.
The RNase A inhibitory activity of the three synthesized peptides was analyzed after treating each peptide at a concentration range of 100 μM to 1 μM with the RNase A from the assay kit.

Assay [2] has as its target T1, RNase A. The experiment in a line: SPR biosensor binding analysis with immobilized RNase A. The arrangement: Ribonuclease A (Type II-A) from bovine pancreas; purchased Sigma-Aldrich Korea; host or cells: bovine pancreas; species or system bovine. Conditions: synthetic peptides, 0.37-10 μM; RNase A immobilized on Au chip; read-out: affinity constant (KD). On the procedure:
Binding analysis of the expressed FV antibody and synthesized peptides against RNase A was performed using an SPR (Surface Plasmon Resonance) biosensor from I-Cluebio (Seongnam, Korea). RNase A was immobilized on the gold surface of the SPR chip used in the SPR biosensor to conduct the binding analysis. For the manufacture of the SPR chip, a 2 nm thick titanium adhesive layer and a 48 nm thick gold surface were consecutively sputter-coated onto BK-7 glass (1×1 cm^2). […] To analyze the binding of the expressed Fv antibody to RNase A, Fv antibodies in the concentration range of 0.37-100 nM were reacted using PBS buffer as the […] through association (10 minutes), equilibrium (5 minutes), and dissociation (10 minutes) steps. The washing buffer and total SPR measurements were performed at a flow rate of 15 μL/min. For the binding analysis of the synthesized peptides against RNase A, peptides in the concentration range of 0.37-100 nM were reacted using PBS buffer as the washing buffer through association (10 minutes), equilibrium (5 minutes), and dissociation (10 minutes) steps, and total SPR measurements were conducted at a flow rate of 15 μL/min.
Using the screened CDR3 amino acid sequences, the CDR3 regions of the screened Fv antibodies were synthesized as peptides, and the amino acid sequences were determined from the nucleotide sequences of the CDR3 regions as summarized in Table 2. These synthetic peptides (Peptide-1, Peptide-2, Peptide-3) and Fv antibodies (Fv-1, Fv-2, Fv-3) were identical to the amino acid sequences of the CDR3 regions of the screened clones. […] The SPR signal was plotted according to the concentration of the synthetic peptides, and the affinity constants (KD) of these synthetic peptides were calculated through a fitting process. […]
Using the screened CDR3 amino acid sequences, the CDR3 regions of the screened Fv antibodies were synthesized as peptides, and the amino acid sequences were determined from the nucleotide sequences of the CDR3 regions as summarized in Table 7. […]

Where no end group is shown, it is not given here.

With DGTAKKSRKDD [Peptide-3], at RNase A [1], the inhibition at 1 µM came out at 50.3%, the “RNase A activity reduced by” value was 50.3% and half-maximal inhibition (IC50) was put at 400 nM. For the same sequence, the Kd (usually the free concentration of one partner at which half of the binding sites on the other are occupied at equilibrium, for simple one-to-one binding) at RNase A [2] stood at 3700 ± 1100 nM.
Turning to CGPDSDVMTDF [Peptide-1], on RNase A [1], the inhibition at 1 µM came out at 54.4%, the “RNase A activity reduced by” value amounted to 54.4% and the IC50 (usually the concentration that gives 50% inhibition) amounted to 8100 nM. In addition, the Kd on RNase A [2] was determined as 1300 ± 100 nM.
Turning to YGPVGRVKRDD [Peptide-2], at RNase A [1], the inhibition at 1 µM turned out to be 53.2%, the “RNase A activity reduced by” value is on record as 53.2% and the IC50 turned out to be 3600 nM. In addition, the Kd on RNase A [2] was 1300 ± 300 nM.
